From article PMC11607671, “Antiviral activity of cathelicidins against porcine epidemic diarrhea virus (PEDV): Mechanisms, and efficacy” (Virus Research, 2024)

How the values were obtained:
PEDV-GFP [1] = experiment: Co-incubation antiviral assay of the extended AMP panel and of FL LL-37; type: cell-based, Porcine epidemic diarrhea virus; conditions: co-incubation with PEDV-GFP, 1 and 5 µM, 3 h, FC; two independent experiments in duplicate; Fig. 5
Procedure: (§1) In order to determine the effect of AMPs on the infectivity of PEDV, Vero cells (5 × 10^5 per well) were seeded in 12-well plates and cultured overnight at 37 °C, 5% CO2. In a co-incubation of virus and AMPs experiments (Fig. 2A), the mixture of AMPs (0–10 µM) and PEDV-GFP (MOI= 0.3) in a 1 mL volume of DMEM (P/S + 10% FCS) was added to the cells and incubated at 37 °C. After 2 h, the supernatant was replaced with fresh DMEM (P/S + 10% FCS) and incubated for 24 h. Subsequently, the cells were washed 2 times with flow cytometry buffer (500 mL PBS+ 10 mL FCS+ 250 µL of 10% NaN3) and were imaged with an EVOS M5000 Imaging System for semi-quantitative determination of infectivity. Eventually, cells were carefully detached by 2.5% trypsin, stained with ViaKrome 808 fixable viability dye (1:1000), and incubated for 30 min at 4 °C. Following washing, the cells were fixed using 50 µL of 4% PFA for 10 min, and a minimum of 1 × 10^5 cells were acquired using the CytoFLEX LX Flow Cytometer (FC)(Beckman Coulter, USA). Data was analyzed using FlowJo software v.10.6 (Flowjo LCC, Ashland, OR, USA).
This extended panel of AMPs encompassed chicken-derived peptides (D-CATH-2, l-CATH-2), mouse-derived peptide (CRAMP), horse-derived peptides (eCATH-1, eCATH-3), parrot-derived peptides (ER2, ER3, AG3), and synthetic peptides (CR165, CR174), all of which were readily accessible within our laboratory. As previously described, these AMPs were co-incubated with PEDV.
Fig. 5 Antiviral effects of a diverse group of AMPs on PEDV infection. Vero cells were incubated for 3 h with a combination of PEDV-GFP and AMPs, as described previously. FC was utilized to assess the inhibitory impact of AMPs.
Figure S4. The antiviral activity of FL LL-37 (fluorogenic LL-37 ) and unlabeled LL-37. Peptides were co-incubated at 1 and 5 µM with PEDV and added to Vero cells for 3 h, followed by FC analysis to examine the infectivity.

PEDV-GFP [2] = experiment: Co-incubation antiviral assay, PEDV-GFP MOI=0.3, Vero cells (fluorescence microscopy and flow cytometry); type: cell-based, Porcine epidemic diarrhea virus
Procedure: as §1
Fig. 2 Effect of AMPs on the infectivity of PEDV (MOI=0.3). A) Experimental set-up of the ‘co-incubation assay’; Vero cells were subjected to 2 h exposure to a combination of AMPs and PEDV-GFP. Afterward, the supernatant was replaced, and the cells were incubated for an additional 24 h B) Fluorescent microscopy (20 × magnification) was performed to visualize the fluorescence signal of GFP in the presence of 1, 5, and 10 µM AMPs. The cell-only sample consists exclusively of cells while the no-peptide sample contains only PEDV-GFP, with no peptides present.
Fig. 3 Antiviral activity of AMPs as determined by flow cytometry (FC). A) The percentage of GFP-positive cells following a 2 h incubation with a combination of PEDV and AMPs. […] The values reported here depict the average ± SD derived from three independent experiments performed in duplicate. * p < 0.05; ** p < 0.01.

PEDV = experiment: Co-incubation antiviral assay, PEDV MOI=1, Vero cells; type: cell-based, Porcine epidemic diarrhea virus; conditions: Fig. 4B
Procedure: as §1
Fig. 4 The inhibitory effect of AMPs on PEDV at MOI=1. A) Fluorescence microscopy image was captured at 20 × magnification to visualize the GFP fluorescence signal in Vero cells following co-incubation of AMPs and PEDV at MOI=1. B) The percentage of GFP-positive cells was determined by FC after 3 h co-incubation of PEDV and AMPs. C) The fluorescence intensity of GFP across three different concentrations of LL-37 was illustrated through the FC histogram. […] The reported values in 4A represent the mean ± SD of three independent experiments performed in duplicate **** p < 0.0001.

PEDV-GFP [3] = experiment: Post-incubation (post-treatment) antiviral assay; type: cell-based, Porcine epidemic diarrhea virus; conditions: Vero cells exposed to PEDV-GFP 2 h, washed, then AMPs for 3 h; FC; Fig. 7B, C
Procedure: In post-incubation assays (Fig. 7A), cells were initially exposed to the virus for 2 h, washed 2times with PBS and subsequently treated with AMPs for 3 h Both for pre- and post-infection assays, after the respective incubation periods, the cells were assessed using fluorescence microscopy and quantified using FC as described above.
Fig. 7 Effects of AMPs in post-incubation assay. A) Design and setup of post-incubation assay. B) The percentage of GFP-positive cells was quantified using FC during post-incubation. C) The FC histogram illustrates the fluorescence intensity of GFP after treatment with CATH-B1 and LL-37. […] The reported values represent the mean ± SD derived from three independent experiments performed in triplicate.

Vero cells = experiment: LDH release cytotoxicity assay; type: cell-based, African green monkey; conditions: 0-10 µM AMPs in DMEM, 3 h and 24 h, LDH release relative to 1% Triton X-100 lysis, three independent experiments, Fig. 1A+B
Procedure: Vero-mCeacam cells (Vero cells), derived from African green monkey kidney cells, were maintained in DMEM (Gibco, Thermo Fisher Scientific, Waltham, MA) supplemented with 10% FCS (Bodinco B.V., Alkmaar, The Netherlands) and 200 units/mL penicillin, and […] (P/S) (Gibco, Life Technologies Limited, Paisley, UK) at 37 °C and 5% CO2.
To assess the cytotoxicity of peptides, Vero cells were treated with AMPs (0 − 10 μM in DMEM) as outlined in paragraph 2.5. After 3 and 24 h of stimulation, the fraction of lactate dehydrogenase (LDH) released into the culture supernatant was measured using the Cyto Tox 96 nonradioactive cytotoxicity kit (Promega GmbH, Walldorf, Germany) according to the manufacturer's instructions, and expressed as a percentage of the maximum LDH release from cells, lysed by 1% Triton X-100 (Sigma-Aldrich, T8787, Darmstadt, Germany).
Fig. 1 The cytotoxicity of AMPs on Vero cells. Cells were incubated with 0 – 10 µM AMPs for either 3 h or 24 h A and B) LDH release assay, indicating cell membrane permeability after 3 and 24 h, respectively. C and D) WST assay, measuring cell metabolic activity after 3 and 24 h, respectively. ‘No peptide‘ represents cells incubated with only growth medium for the indicated times, serving as a control. P.C in the LDH assay are cells that have been lysed by the lysis buffer representing 100% release of intracellular LDH. […]

Sequence: LLGDFFRKSKEKIGKEFKRIVQRIKDFLRNLVPRTES [LL-37, human cathelicidin antimicrobial peptide, 37 residues]
- prevention of PEDV-GFP entry into Vero cells, extended AMP panel, in words (PEDV-GFP [1]): strong antiviral activity
- percentage of GFP-positive cells (FC), co-incubation (PEDV-GFP [2]; 10 µM peptide, PEDV-GFP MOI=0.3, 2 h co-incubation then 24 h, no-peptide control approximately 35%, three independent experiments in duplicate, Fig. 3A): 1–2%
- infected cells by fluorescent microscopy, co-incubation (PEDV-GFP [2]; PEDV-GFP MOI=0.3, 5 and 10 µM peptide, 2 h co-incubation then 24 h, compared to control without peptide, Fig. 2B): reduced numbers of infected cells
- % infected cells (FC), co-incubation at MOI=1 (PEDV; 10 µM peptide, PEDV MOI=1, Vero cells, no-peptide control almost 100%): 30%
- antiviral effect at MOI=1, in words (PEDV; PEDV MOI=1, co-incubation, Vero cells, FC): remained strong
- antiviral activity in post-incubation assay, in words (PEDV-GFP [3]): very moderate effect
- cytotoxicity (LDH release) (Vero cells): no toxic effects
